“And” between values parts separate entries of the source, which are not always exact repeats. Equal entries are not always repeated. Square brackets hold non-standard residues; d marks the D form. Peptide text beside a SMILES is read from it. Cha = N[C@@H](CC1CCCCC1)C(=O)O; dCha = N[C@H](CC1CCCCC1)C(=O)O
Legend:
C5a1 [1] = molecular target: T1, C5a1 (Homo sapiens, UniProt P21730); experiment: Total C5a1 loading control (np-C5a1 / anti-HA); assay type: cell-based
T1 construct: host or cells: Control-HEK293, ΔGRK2/3-HEK293, ΔGRK5/6-HEK293, stably expressing
T1 sequence (P21730 1-350): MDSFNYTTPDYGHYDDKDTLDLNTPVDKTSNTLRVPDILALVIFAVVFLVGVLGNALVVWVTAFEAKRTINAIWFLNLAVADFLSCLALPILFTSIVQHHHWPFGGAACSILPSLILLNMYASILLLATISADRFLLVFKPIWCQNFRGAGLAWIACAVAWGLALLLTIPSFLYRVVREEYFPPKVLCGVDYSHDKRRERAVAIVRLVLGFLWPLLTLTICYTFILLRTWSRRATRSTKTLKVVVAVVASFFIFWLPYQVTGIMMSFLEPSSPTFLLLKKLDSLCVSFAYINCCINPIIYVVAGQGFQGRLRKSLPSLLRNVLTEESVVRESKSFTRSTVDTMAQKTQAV

C5a1 [2] = molecular target: T1, C5a1; experiment: pS332/pS334-C5a1 7TM phosphorylation assay; assay type: cell-based
[3] = Control-C5aR1-HEK293 run beside the ΔGRK2/3 block, C028 10 µM
[4] = ΔGRK2/3-C5aR1-HEK293, C028 10 µM (concentration series)

N=C(N)NCCC[C@@H](NC(=O)[C@H](CC1CCCCC1)NC(=O)[C@@H](CC1CCCCC1)NC(=O)[C@@H]1CCCN1C(=O)[C@H](CCCCN)NC(=O)[C@@H](N)Cc1ccccc1)C(=O)O [C028, FKP-(D-Cha)-Cha-r] (H-FKP[dCha][Cha][dR]-OH)
np signal, raw (C5a1 [1]; C028 0.01 µM, Control-C5aR1-HEK293): 1.7187 and 1.7849 and 1.2842 and 1.2491 and 1.8947 | np signal, raw (C5a1 [1]; C028 0.01 µM, ΔGRK2/3-C5aR1-HEK293): 1.3719 and 1.658 and 1.494 and 1.3769 and 1.8182 | np signal, raw (C5a1 [1]; C028 0.1 µM, Control-C5aR1-HEK293): 1.8405 and 1.7894 and 1.13 and 1.0755 and 1.6047 | np signal, raw (C5a1 [1]; C028 0.1 µM, ΔGRK2/3-C5aR1-HEK293): 1.6138 and 1.8688 and 1.3994 and 1.4066 and 1.6881 | np signal, raw (C5a1 [1]; C028 0.1 µM, ΔGRK5/6-C5aR1-HEK293): 1.983 and 1.7745 and 1.5114 and 1.8261 and 1.6189 | np signal, raw (C5a1 [1]; C028 0.3 µM, ΔGRK5/6-C5aR1-HEK293): 1.6298 and 1.4921 and 1.6333 and 1.6817 and 1.6758 | np signal, raw (C5a1 [1]; C028 1 µM, ΔGRK2/3-C5aR1-HEK293): 1.3996 and 1.4952 and 2.1996 and 1.4182 and 2.2245 | np signal, raw (C5a1 [1]; C028 1 µM, ΔGRK5/6-C5aR1-HEK293): 1.9501 and 1.5997 and 1.4175 and 1.1243 and 1.5682 | np signal, raw (C5a1 [1]; C028 3 µM, Control-C5aR1-HEK293): 1.9121 and 1.6861 and 1.569 and 1.3939 and 2.1397 | np signal, raw (C5a1 [1]; C028 3 µM, ΔGRK2/3-C5aR1-HEK293): 1.5651 and 1.596 and 2.1319 and 1.2489 and 1.5422 | np signal, raw (C5a1 [1]; C028 3 µM, ΔGRK5/6-C5aR1-HEK293): 1.6842 and 1.511 and 1.6612 and 1.9363 and 1.5067 | np signal, raw (C5a1 [1]; C028 10 µM, Control-C5aR1-HEK293, concentration series): 1.6592 and 1.6457 and 1.7245 and 1.2748 and 1.696 | np signal, raw (C5a1 [1]; C028 10 µM, Control-C5aR1-HEK293, first 0/10 µM pair): 1.6592 and 1.6457 and 1.3473 and 1.1686 and 1.879 | np signal, raw (C5a1 [1]; C028 10 µM, Control-C5aR1-HEK293, last 0/10 µM pair of Control block): 1.9885 and 1.4944 and 1.4087 and 1.155 and 1.5321 | np signal, raw (C5a1 [1]; C028 10 µM, Control-C5aR1-HEK293 beside ΔGRK2/3 block): 2.0332 and 1.1801 and 1.5046 and 1.4934 and 1.6943 | np signal, raw (C5a1 [1]; C028 10 µM, Control-C5aR1-HEK293 beside ΔGRK5/6 block): 1.9038 and 2.0072 and 1.4662 and 1.7694 and 1.271 | np signal, raw (C5a1 [1]; C028 10 µM, ΔGRK2/3-C5aR1-HEK293, concentration series): 1.5246 and 1.7106 and 1.3042 and 1.3389 and 1.7008 | np signal, raw (C5a1 [1]; C028 10 µM, ΔGRK2/3-C5aR1-HEK293, first 0/10 µM pair): 1.2045 and 1.6486 and 1.422 and 1.3225 and 1.7342 | np signal, raw (C5a1 [1]; C028 10 µM, ΔGRK5/6-C5aR1-HEK293, concentration series): 2.2585 and 1.8872 and 1.4472 and 1.4134 and 1.6269 | np signal, raw (C5a1 [1]; C028 10 µM, ΔGRK5/6-C5aR1-HEK293, first 0/10 µM pair): 2.1115 and 2.0551 and 1.5281 and 1.3721 and 1.3579 | np (raw signal) (C5a1 [1]; Control-C5aR1-HEK293, C028 0.01 µM, concentration series): 1.9803 and 1.5907 and 1.3538 and 1.2438 and 1.436 and 1.5903 and 1.7448 and 1.269 | np (raw signal) (C5a1 [1]; Control-C5aR1-HEK293, C028 0.3 µM, concentration series): 1.588 and 1.7265 and 1.5961 and 0.9789 and 1.4851 and 1.7215 and 1.957 and 1.5097 | np (total C5aR1), raw signal (C5a1 [1]; Control-C5aR1-HEK293, C028 0.01 µM): 1.3949 and 1.3266 and 1.5751 and 1.603 and 1.9857 and 2.1902 | np (total C5aR1), raw signal (C5a1 [1]; Control-C5aR1-HEK293, C028 0.1 µM): 1.088 and 1.5141 and 1.6432 and 1.3119 and 2.129 and 1.8032 | np (total C5aR1), raw signal (C5a1 [1]; Control-C5aR1-HEK293, C028 0.3 µM): 1.3568 and 1.8238 and 1.5485 and 1.2855 and 1.9306 and 1.5751 | np (total C5aR1), raw signal (C5a1 [1]; Control-C5aR1-HEK293, C028 1 µM): 1.4754 and 1.6232 and 1.785 and 1.3295 and 1.6944 and 2.063 | np (total C5aR1), raw signal (C5a1 [1]; Control-C5aR1-HEK293, C028 3 µM): 1.2425 and 1.4862 and 1.9242 and 1.5919 and 2.0564 and 1.6025 | np (total C5aR1), raw signal (C5a1 [1]; Control-C5aR1-HEK293 beside ΔGRK5/6 series, C028 10 µM): 2.3386 and 2.3729 and 1.6554 and 1.7709 and 1.3577 and 1.3562 and 1.5255 | np (raw signal) (C5a1 [1]; [3]): 1.8085 and 2.0631 and 1.4603 and 1.3915 and 1.4955 and 1.1807 | np (raw signal) (C5a1 [1]; Control-C5aR1-HEK293 run beside the ΔGRK5/6 block, C028 10 µM): 1.9033 and 1.7695 and 1.3647 and 1.1555 and 2.1969 and 1.68 and 1.7195 and 1.5597 | np (raw signal) (C5a1 [1]; ΔGRK2/3-C5aR1-HEK293, C028 0.01 µM, concentration series): 1.9037 and 1.8736 and 1.6092 and 1.5411 and 1.8666 and 1.9049 and 1.8208 and 1.3708 | np (raw signal) (C5a1 [1]; ΔGRK2/3-C5aR1-HEK293, C028 0.1 µM, concentration series): 1.8343 and 1.6381 and 1.9187 and 1.6055 and 2.1604 and 1.5161 and 1.9037 and 1.8736 | np (raw signal) (C5a1 [1]; ΔGRK2/3-C5aR1-HEK293, C028 0.3 µM, concentration series): 1.6659 and 1.792 and 1.7372 and 1.7036 and 2.059 and 1.9288 and 1.8343 and 1.6381 | np (raw signal) (C5a1 [1]; ΔGRK2/3-C5aR1-HEK293, C028 1 µM, concentration series): 1.7539 and 1.6924 and 1.7772 and 1.4498 and 2.0307 and 1.5417 and 1.6659 and 1.792 | np (raw signal) (C5a1 [1]; ΔGRK2/3-C5aR1-HEK293, C028 3 µM, concentration series): 1.6846 and 1.3473 and 1.4287 and 1.3661 and 2.0103 and 1.5757 and 1.7539 and 1.6924 | np (total C5aR1), raw signal (C5a1 [1]; ΔGRK2/3-C5aR1-HEK293, C028 0.01 µM): 1.9989 and 2.1791 and 2.1472 and 1.695 and 1.8681 and 1.8947 and 1.79 | np (total C5aR1), raw signal (C5a1 [1]; ΔGRK2/3-C5aR1-HEK293, C028 0.1 µM): 2.1466 and 2.0776 and 2.1938 and 2.0797 and 1.633 and 1.3767 and 1.2578 | np (total C5aR1), raw signal (C5a1 [1]; ΔGRK2/3-C5aR1-HEK293, C028 0.3 µM): 1.9738 and 1.8316 and 2.0611 and 2.0567 and 1.8444 and 1.4691 and 1.6375 | np (total C5aR1), raw signal (C5a1 [1]; ΔGRK2/3-C5aR1-HEK293, C028 1 µM): 1.8294 and 2.1206 and 2.1815 and 1.9867 and 1.4524 and 1.8069 and 1.3881 | np (total C5aR1), raw signal (C5a1 [1]; ΔGRK2/3-C5aR1-HEK293, C028 3 µM): 1.9342 and 1.5491 and 2.0615 and 1.8761 and 1.3783 and 1.8045 and 1.3094 | np (total C5aR1), raw signal (C5a1 [1]; ΔGRK2/3-C5aR1-HEK293, C028 10 µM (0/10 µM pair)): 1.6776 and 1.597 and 2.0065 and 1.9839 and 1.7864 and 1.8111 and 1.5147 | np (raw signal) (C5a1 [1]; [4]): 1.6617 and 1.8239 and 1.3136 and 1.3724 and 1.8559 and 1.6 | np (total C5aR1), raw signal (C5a1 [1]; [4]): 2.0002 and 1.769 and 2.052 and 2.2047 and 1.6138 and 1.7275 and 1.9566 | np (raw signal) (C5a1 [1]; ΔGRK5/6-C5aR1-HEK293, C028 0.3 µM, concentration series): 1.7318 and 1.8541 and 1.5067 and 1.2715 and 1.8493 and 2.0046 and 1.7672 and 1.7676 | np (raw signal) (C5a1 [1]; ΔGRK5/6-C5aR1-HEK293, C028 1 µM, concentration series): 2.0252 and 1.7968 and 1.4934 and 1.2437 and 2.0647 and 1.7841 and 1.4601 and 1.5886 | np (raw signal) (C5a1 [1]; ΔGRK5/6-C5aR1-HEK293, C028 10 µM, first 0/10 µM column pair): 1.7829 and 1.9246 and 1.5744 and 1.3841 and 1.8642 and 1.9552 and 1.5996 and 1.6914 | np (total C5aR1), raw signal (C5a1 [1]; ΔGRK5/6-C5aR1-HEK293, C028 10 µM (0/10 µM pair)): 1.7545 and 1.6551 and 1.4386 and 1.778 and 1.4304 and 1.6743 and 2.0075 | np (total C5aR1), raw signal (C5a1 [1]; ΔGRK5/6-C5aR1-HEK293, C028 10 µM (concentration series)): 1.8811 and 1.8348 and 1.6561 and 1.4006 and 1.0888 and 1.1737 and 1.1522 | OD405 max pS332/pS334-C5a1 (C5a1 [2]): 1.06 | OD405 min pS332/pS334-C5a1 (C5a1 [2]): 0.11 | pS332/pS334 normalized (C5a1 [2]; Control-C5aR1-HEK293, C028 10 µM (concentration series)): 95.44% and 132.42% and 80.61% and 80.15% and 121.12% and 109.12% and 102.49% and 106.48% | pS332/pS334 (raw signal) (C5a1 [2]; [3]): 0.7901 and 0.7373 and 0.8202 and 0.7545 and 1.029 and 1.2201 | Emax (C5a1 [2]; Control-HEK293, read-out: Emax (% Control C028) pS332/pS334-C5a1): 100% | EC50 (C5a1 [2]; pEC50 pS332/pS334-C5a1, Control-HEK293): 398 nM | EC50 (C5a1 [2]; pEC50 pS332/pS334-C5a1, ΔGRK2/3-HEK293): 501 nM

From publication PMC9646841, “A bead-based GPCR phosphorylation immunoassay for high-throughput ligand profiling and GRK inhibitor screening” (Communications Biology, 2022)
